Legend:
[1] = test system: Human promyelocytic leukemia (HL60) cells; assay: HL-60 cell differentiation (nitro blue tetrazolium reduction); assay type: cell-based; settings: FIG. 2; for EC50: HL60 cells, 4 days, NBT reduction
Description: The study drugs were dissolved in ethanol and the concentrations determined using UV spectrophotometry. Serial dilutions were prepared so that a range of drug concentrations could be tested without changing the final concentration of ethanol (≦0.2%) present in the cell cultures.
Human promyelocytic leukemia (HL60) cells were grown in RPMI-1640 medium containing 10% fetal bovine serum. The cells were incubated at 37° C. in the presence of 5% CO2.
HL60 cells were plated at 1.2×10^5 cells/ml. Eighteen hours after plating, cells in duplicate were treated with drug. […] The percentage of differentiated cells was determined by counting a total of 200 cells and recording the number that contained intracellular black-blue formazan deposits. Verification of differentiation to monocytic cells was determined by measuring phagocytic activity (data not shown).

vitamin D-deficient rats [2] = assay: Intestinal calcium transport (everted gut sac) in vitamin D-deficient rats; assay type: in vivo, rat; settings: for intestinal calcium transport: everted gut sac, FIG. 5
Description: (§1) Intestinal Calcium Transport and Bone Calcium Mobilization
(§2) Male, weanling Sprague-Dawley rats were placed on Diet 11 (0.47% Ca) diet+AEK for one week followed by Diet 11 (0.02% Ca)+AEK for 3 weeks. The rats were then switched to a diet containing 0.47% Ca for one week followed by two weeks on a diet containing 0.02% Ca. Dose administration began during the last week on 0.02% calcium diet. Four consecutive ip doses were given approximately 24 hours apart. Twenty-four hours after the last dose, blood was collected from the severed neck and the concentration of serum calcium determined as a measure of bone calcium mobilization. The first 10 cm of the intestine was also collected for intestinal calcium transport analysis using the everted gut sac method.

vitamin D-deficient rats [3] = assay: Bone calcium mobilization (serum calcium) in vitamin D-deficient rats; assay type: in vivo, rat
Description: as §1, §2

[4] = target: T1, full-length recombinant rat vitamin D receptor (Rattus norvegicus, UniProt P13053); assay: Vitamin D receptor competitive binding with [3H]-1,25(OH)2D3; settings: full-length recombinant rat VDR, FIG. 1
T1 construct: Full-length recombinant rat receptor was expressed in E. coli BL21 (DE3) Codon Plus RIL cells; histidine tag (C); made in house; host or cells: E. coli BL21 (DE3) Codon Plus RIL
T1 sequence (P13053 1-423): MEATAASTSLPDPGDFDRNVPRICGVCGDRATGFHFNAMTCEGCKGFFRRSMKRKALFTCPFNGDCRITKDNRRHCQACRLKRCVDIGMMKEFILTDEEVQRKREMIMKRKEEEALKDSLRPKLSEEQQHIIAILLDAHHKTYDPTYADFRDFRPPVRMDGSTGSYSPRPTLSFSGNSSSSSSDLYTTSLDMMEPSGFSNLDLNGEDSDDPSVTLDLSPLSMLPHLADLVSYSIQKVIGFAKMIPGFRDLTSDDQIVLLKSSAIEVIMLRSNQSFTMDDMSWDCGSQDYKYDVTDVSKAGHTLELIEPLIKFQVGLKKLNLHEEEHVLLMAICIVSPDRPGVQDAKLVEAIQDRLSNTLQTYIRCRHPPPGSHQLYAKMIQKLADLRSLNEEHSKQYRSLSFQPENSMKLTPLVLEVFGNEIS
From the text: Vitamin D Receptor Binding
Full-length recombinant rat receptor was expressed in E. coli BL21 (DE3) Codon Plus RIL cells and purified to homogeneity using two different column chromatography systems. The first system was a nickel affinity resin that utilizes the C-terminal histidine tag on this protein. The protein that was eluted from this resin was further purified using ion exchange chromatography (S-Sepharose Fast Flow). Aliquots of the purified protein were quick frozen in liquid nitrogen and stored at −80° C. until use. For use in binding assays, the protein was diluted in TEDK50 (50 mM Tris, 1.5 mM EDTA, pH7.4, 5 mM DTT, 150 mM KCl) with 0.1% Chaps detergent. The receptor protein and ligand concentration were optimized such that no more than 20% of the added radiolabeled ligand was bound to the receptor.
Radiolabeled and unlabeled ligands were added to 100 mcl of the diluted protein at a final ethanol concentration of ≦10%, mixed and incubated overnight on ice to reach binding equilibrium. The following day, 100 mcl of hydroxylapatite slurry (50%) was added to each tube and mixed at 10-minute intervals for 30 minutes. The hydroxylapaptite was collected by centrifugation and then washed three times with Tris-EDTA buffer (50 mM Tris, 1.5 mM EDTA, pH 7.4) containing 0.5% Titron X-100. […] Total binding was determined from the tubes containing only radiolabeled ligand.

[5] = test system: 24-hydroxylase (24 Ohase) gene promoter; assay: In vitro transcription assay (24-hydroxylase promoter luciferase reporter in ROS 17/2.8 bone cells); assay type: cell-based; settings: FIG. 3
Description: In Vitro Transcription Assay
Transcription activity was measured in ROS 17/2.8 (bone) cells that were stably transfected with a 24-hydroxylase (24 Ohase) gene promoter upstream of a luciferase reporter gene (Arbour et al., 1998). Cells were given a range of doses. Sixteen hours after dosing the cells were harvested and luciferase activities were measured using a luminometer.
RLU=relative luciferase units.

Row | Structure (SMILES) | EC50 [1] [nM] | intestinal calcium transport (vitamin D-deficient rats [2]; 260 pmol/day) | serum calcium levels (bone calcium mobilization) (vitamin D-deficient rats [3]; rats on 0.02% Ca diet, 4 consecutive ip doses, all dosages, FIG. 4) | potency on HL-60 cell differentiation compared to 1,25(OH)2D3 [1] | EC50 ([1]; Homo sapiens, HL-60, 96 h) [nM] | intestinal calcium transport (vitamin D-deficient rats [2]; 87 pmol/day, 260 pmol/day or 780 pmol/day) | intestinal calcium transport (vitamin D-deficient rats [2]; 2340 pmol/day) | activity in stimulating intestinal calcium transport as compared to 1,25(OH)2D3 (vitamin D-deficient rats [2]; FIG. 5, overall) | binding to the receptor as compared to the standard 1,25-(OH)2D3 [4] | Ki ([4]; read-out: Ki, competition with [3H]-1,25(OH)2D3 for binding to the vitamin D receptor) [nM] | transcriptional activity in bone cells compared to 1α,25-dihydroxyvitamin D3 [5] | EC50 ([5]; ROS 17/2.8 cells, 24-OHase promoter-luciferase, 16 h, read-out: EC50, transcriptional activity in bone cells) [nM] | mobilization of bone calcium (vitamin D-deficient rats [3]; 87 pmol/day for 4 consecutive days, rats on 0.02% Ca diet, FIG. 4) | mobilization of bone calcium (vitamin D-deficient rats [3]; 260 pmol/day, 780 pmol/day and 7020 pmol/day, rats on 0.02% Ca diet, FIG. 4) | bone calcium mobilization activity as compared to 1,25(OH)2D3 (vitamin D-deficient rats [3]; FIG. 4, overall)
1 | C=C1/C(=C\C=C2/CCC[C@]3(C)[C@@H]([C@H](C)CCCC(C)(C)O)CC[C@@H]23)C[C@@H](O)C[C@@H]1O [1,25(OH)2D3, 1α,25-dihydroxyvitamin D3, reference compound] | 3.6 | promotes a significant increase | increased serum calcium levels at all dosages |  |  |  |  |  |  |  |  |  |  |  | 
2 | CCC(C)C1CCC2C(=CC=C3CC(O)C(C)C(O)C3)CCCC21C [2α-methylbisP, 2α-methyl-19-nor-(20S)-1α-hydroxy-bishomopregnacalciferol] |  |  |  | almost as potent as 1,25(OH)2D3 | 37 | does not promote intestinal calcium transport | significant intestinal calcium transport activity was recorded | very little activity | bound slightly less | 1.6 | about the same transcriptional activity | 4.4 | did not result in mobilization of bone calcium | without any substantial effect | very little bone calcium mobilization activity

Source: patent US8093232B2, “2α-methyl-19-nor-(20S)-1α-hydroxy-bishomopregnacalciferol and its uses” (Wisconsin Alumni Research Foundation, priority 2004, dated 2012)
